From PubChem BioAssay (NCI)
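How tested: cells in 96-well plates exposed to compound for 48 hours at five concentrations. GI50 marks 50% less growth. TGI: concentration producing complete growth inhibition.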 Where a SMILES comes first, the peptide text is derived from it. [ ]: non-standard residue; d: D form.

What was measured:
Experiment in all cases: growth of human tumour cells (NCI), 48 h
[1] = tested on: HS 578T breast
[2] = tested on: MDA-MB-231 breast
[3] = tested on: MDA-MB-435
[4] = tested on: NCI/ADR-RES ovarian
[5] = tested on: MCF7 breast
[6] = tested on: DU-145 prostate
[7] = tested on: BT-549 breast

Row | Structure (SMILES) | GI50 [1] | TGI [1] | GI50 [2] | TGI [2] | GI50 [3] | TGI [3] | GI50 [4] | TGI [4] | GI50 [5] | TGI [5] | GI50 [6] | TGI [6] | GI50 [7] | TGI [7]
1 | CNC(=O)c1cc(-c2ccc(F)cc2)cc(-c2ccc(S(=O)(=O)N3CCCC3)cc2)c1N | > 11.1 µM | > 25 µM | > 20.8 µM | > 25 µM | > 25 µM | > 25 µM | 16.2 µM | > 25 µM | 8.79 µM | > 25 µM | > 25 µM | > 25 µM | > 21.2 µM | > 25 µM
2 | CC(=O)/C(=C/N1CCN(C(=O)c2ccco2)C1=S)C(=O)c1ccccc1 | – | – | 9.46 µM | 19.8 µM | 10.7 µM | 43.9 µM | – | – | 1.25 µM | 4.2 µM | 11 µM | 30.4 µM | 5.54 µM | 18.1 µM
3 | CSCC[C@H](NC(=O)[C@@H](N)CC(N)=O)C(=O)N[C@@H](Cc1c[nH]c2ccccc12)C(=O)N[C@@H](CCC(N)=O)C(=O)N[C@@H](CCC(=O)O)C(=O)N[C@H](C(=O)NCC(=O)N[C@@H](CCCCN)C(=O)N[C@H](C)C(=O)O)C(C)C (H-NMWQEVGK[dA]-OH) | – | > 100 µM | – | > 100 µM | – | > 100 µM | – | > 100 µM | – | > 100 µM | – | > 100 µM | – | –
4 | COc1ccc2c(c1)C=CC1C2CC[C@]2(C)C(NC(=O)/C=C/c3ccc(O)c(O)c3)CCC12 (stereo partly specified) | 27.2 µM | > 100 µM | 12.1 µM | 25.9 µM | 14.7 µM | 36.6 µM | 11.8 µM | 33.5 µM | 6.28 µM | 20.8 µM | 16.1 µM | 39.6 µM | 19.6 µM | 56.9 µM
5 | C1CC[N-]CC1.CC(=N\O)/C(C)=N/O.CC(=N\O)/C(C)=N/O.C[CH-]C(C)O.[Co+2] | 28 µM | 83.1 µM | 27.2 µM | 64 µM | 23.1 µM | 51.7 µM | 54.2 µM | > 100 µM | 24.4 µM | 57.8 µM | 81.1 µM | > 100 µM | 28.5 µM | 79.7 µM
6 | CCOC(=O)N(O)c1ccc(/C=C/c2ccccc2)cc1 | 29.4 µM | > 100 µM | 9.39 µM | 39.9 µM | 11 µM | 48.6 µM | 13 µM | 88.6 µM | 0.341 µM | 14.6 µM | 11.2 µM | > 88.6 µM | 9.38 µM | 40 µM
7 | COc1cc2c(=O)n(CC3CCCCC3)c3c4cc[nH]c4ncc3c2cc1OC | 0.719 µM | 4.09 µM | 1.13 µM | 7.59 µM | 4.15 µM | > 50 µM | 3.74 µM | 34.5 µM | 0.64 µM | > 50 µM | 4.96 µM | 19.6 µM | 0.807 µM | 14.7 µM
8 | CC(=O)OC1=C(CC(C)(C)C)C(=O)c2ccccc2C1=O | – | 50.5 µM | – | > 100 µM | – | 60.8 µM | – | 85.3 µM | – | > 100 µM | – | > 100 µM | – | –
9 | COc1ccc(F)cc1-c1ccnc2[nH]c(C3=CCN(C4CCC(CC(=O)O)CC4)CC3)cc12 (stereo unspecified) | 0.177 µM | 0.965 µM | 0.205 µM | – | 0.221 µM | 1.05 µM | 2.15 µM | > 100 µM | 0.0625 µM | 26.9 µM | 0.346 µM | > 100 µM | 0.156 µM | 0.903 µM
10 | CN(C)Cc1cc(C(C)(C)C)cc(CN(C)C)c1O | – | > 100 µM | – | > 100 µM | – | > 100 µM | – | > 100 µM | – | > 100 µM | – | > 100 µM | – | > 100 µM
11 | Cc1c(C2CCSc3ccccc3N2)sc2ccccc12 (stereo unspecified) | – | > 100 µM | – | > 100 µM | – | > 100 µM | – | > 100 µM | – | > 100 µM | – | > 100 µM | – | > 100 µM
12 | O=S(=O)(Nc1ccc(Cl)c(Cl)c1)c1ccc(-c2cnc(C3CC3)o2)cc1 | 0.455 µM | 30.7 µM | 1.59 µM | 15.8 µM | 0.139 µM | 0.674 µM | 0.345 µM | 4.91 µM | 0.289 µM | 18.3 µM | 0.736 µM | 13.9 µM | 0.911 µM | 18.2 µM
13 | N/C(CC(=O)NOC(=O)c1ccccc1)=N/OC(=O)c1ccccc1 | – | > 100 µM | – | > 100 µM | – | > 100 µM | – | > 100 µM | – | 92.4 µM | – | > 100 µM | – | 77.6 µM
14 | O=C1/C(=C/c2ccc(O)cc2)Oc2ccccc21 | – | > 100 µM | – | > 100 µM | – | > 100 µM | – | > 100 µM | – | > 100 µM | – | > 100 µM | – | > 100 µM
15 | c1ccc(-c2cc3n4c(-c5ccccc5)nn(-c5ccccc5)c4cnc-3n2)cc1 | 9.62 µM | > 50 µM | 16.4 µM | > 50 µM | > 50 µM | > 50 µM | > 50 µM | > 50 µM | 4.26 µM | > 50 µM | – | – | 48.6 µM | > 50 µM
16 | COc1ccc(C2C3=C(COC3=O)N(CCO)c3cc4c(cc32)CCC4)cc1 (stereo unspecified) | 4.11 µM | 42 µM | 10.9 µM | > 50 µM | 1.13 µM | 5.09 µM | 3.89 µM | 25.8 µM | 1.86 µM | > 50 µM | 5.04 µM | 20.2 µM | 2.38 µM | 25.2 µM
17 | CC1/C(=N/O)CC(c2ccccc2)N(N=O)C1c1ccccc1 (stereo unspecified) | – | > 100 µM | – | > 100 µM | – | > 100 µM | – | > 100 µM | – | > 100 µM | – | > 100 µM | – | > 100 µM
18 | CC[C@@H](C(=O)[C@@H](C)[C@@H](O)[C@H](C)[C@@H]1O[C@@H]([C@@H](CC)C(=O)O)CC[C@@H]1C)[C@H]1O[C@]2(C=C[C@@H](O)[C@]3(CC[C@@](C)([C@H]4CC[C@](O)(CC)[C@H](C)O4)O3)O2)[C@H](C)C[C@@H]1C | 0.914 µM | 36.1 µM | 0.732 µM | 7.68 µM | 1.08 µM | 2.72 µM | 1.32 µM | 51.4 µM | 0.315 µM | 13.1 µM | 1.71 µM | 28.5 µM | 0.248 µM | 4.33 µM
19 | C=Cc1cc(OC)c2c(c1)c(=O)oc1c2cc(OC)c2c(O)ccc(C3OC(C(C)O)C(O)C3O)c21 (stereo unspecified) | 0.0191 µM | 0.0617 µM | 0.0438 µM | > 1 µM | 0.0145 µM | 0.0337 µM | 0.012 µM | 0.271 µM | 0.000944 µM | 0.321 µM | – | – | 0.00769 µM | 0.0391 µM
